Test results: patent US20230134228A1, “SYNERGISTIC HERBAL COMPOSITION AS A BROAD-SPECTRUM PROPHYLACTIC MAJOR AND METHOD TO PREPARE THE SAME” (priority 2020, published 2023)

Legend:
Format in all cases: biochemical
[1] = Hydroxyl radical scavenging activity; conditions: for TBARS Inhibition (%): Table 6 (hydroxyl radical scavenging)
[2] = Anti-oxidant assay (DPPH radical scavenging activity)
[3] = Lipid peroxidation (TBARS) inhibition assay; conditions: for TBARS Inhibition (%): Table 7

O=C1O[C@H]([C@@H](O)CO)C(O)=C1O [Ascorbic Acid, ascorbic acid]
Inhibitory concentration [IC50], hydroxyl radical [1]: 30.83 µg/mL
TBARS Inhibition (%) ([1]; Conc. 6.25 μl/ml): 35.27%
TBARS Inhibition (%) ([1]; Conc. 12.5 μl/ml): 42.80%
TBARS Inhibition (%) ([1]; Conc. 25 μl/ml): 53.76%
TBARS Inhibition (%) ([1]; Conc. 50 μl/ml): 64.72%
TBARS Inhibition (%) ([1]; Conc. 100 μl/ml): 64.43%
TBARS Inhibition (%) ([1]; Conc. 200 μl/ml): 76.71%
DPPH radical inhibition (%) ([2]; Conc. 3.125 μl/ml): 29.93%
DPPH radical inhibition (%) ([2]; Conc. 6.25 μl/ml): 52.42%
DPPH radical inhibition (%) ([2]; Conc. 12.5 μl/ml): 71.28%
DPPH radical inhibition (%) ([2]; Conc. 25 μl/ml): 87.88%
DPPH radical inhibition (%) ([2]; Conc. 50 μl/ml): 92.05%
DPPH radical inhibition (%) ([2]; Conc. 100 μl/ml): 95.01%
DPPH radical inhibition (%) ([2]; Conc. 200 μl/ml): 29.93%
Inhibitory concentration [IC50], DPPH ([2]; from graph of % inhibition vs concentration): 17.30 µg/mL
Inhibitory concentration [IC50], lipid peroxidation (TBARS) [3]: 20.32 µg/mL
TBARS Inhibition (%) ([3]; Conc. 6.25 μl/ml): 36.0%
TBARS Inhibition (%) ([3]; Conc. 12.5 μl/ml): 47.69%
TBARS Inhibition (%) ([3]; Conc. 25 μl/ml): 54.76%
TBARS Inhibition (%) ([3]; Conc. 50 μl/ml): 62.15%
TBARS Inhibition (%) ([3]; Conc. 100 μl/ml): 68.92%
TBARS Inhibition (%) ([3]; Conc. 200 μl/ml): 72.61%
